Values of other authors as cited in patent publication US7153888B2, “Stabilization of benzoyl peroxide in solution” (Alpharx Inc., priority 2004, dated 2006).

What was measured:
[1] = not given; remark: listed apart in the source

Compound: O=C(OOC(=O)c1ccccc1)c1ccccc1 [benzoyl peroxide]
- solubility (common solvents such as alcohol, PEG and propylene glycol): below 20 mg/ml
- drop of solubility (water-miscible solvent, water content grows from 0 to 25%): 2–4 orders of magnitude
- stability by solvent ([1]; in PEG 400): least stable
- time until destroyed ([1]; in the presence of ethanol and acidic chelating agents, stored at 30° C. or 40° C.): ≤ 1 month
- first-order K value of decomposition ([1]; polyethylene glycol ointment base, 24° C.): 0.028 day⁻¹
- half-life (50% content decrease) ([1]; pure BP in different solvents, room temperature): 151 to 6380 h
- potency of benzoyl peroxide suspension (decrease from 5%) ([1]; suspension in polyethylene glycol ointment base, 50° C., 5 days): less than 1%
